Laboratory results published in patent EP3075378A1, “ANTI-INFLAMMATORY AGENT AND MELANIN PRODUCTION SUPPRESSANT” (Kao Corporation, priority 2013, dated 2015).

Legend:
[1] = system: Normal human epidermal cells; assay: Test-1 of PGE2 production suppression (arachidonic acid added); type: cell-based; settings: culture supernatant after one day, control 1711.7 ± 25.91
Description: Normal human epidermal cells were seeded on a 24 well plate by 2 × 10^5 each, and cultured for 2 days on a MCDB153 medium. The medium was exchanged with a MCDB153 medium containing arachidonic acid (manufactured by Wako Pure Chemical Industries, Ltd.), which is a substrate of PGE2, and pentaerythritol (manufactured by JUNSEI CHEMICAL CO., LTD.) or the two acetal derivatives of pentaerythritol (the compounds of Examples 1 and 2), and the cells were further cultured for one day. As a control, purified water was added instead of pentaerythritol or the acetal derivative of pentaerythritol. After completion of the culture, the amount of PGE2 released in the cultured supernatant was quantified using a PGE2 measurement kit (manufactured by Cayman Chemical Company). In addition, in the same manner as the control, a control group to which purified water was added, but arachidonic acid was not added, was provided.

[2] = Test of melanin production suppression, using three-dimensional cultured skin model; type: cell-based, human; settings: Homo sapiens, 264 h; Addition concentration 5 mmol/L; method as Example 6; relative to control (H2O) 100; read-out: Melanin amount (%)
Description: (§1) A three-dimensional cultured skin model (MEL-300-A, manufactured by MatTek Corporation) composed of normal human epidermal melanocytes and epidermal keratinocytes was cultured, using the attached medium to which factors inducing melanin production were added. 25 µL of a pentaerythritol solution (1 or 5 mmol/L) was added onto the keratinous layer of the skin model. The skin model was cultured for 11 days exchanging the medium and the test substance solution every 2 to 3 days, and then the skin model was washed, and the cell survival rate was measured using Alamar Blue (manufactured by Invitrogen). In addition, the skin model was dissolved under heating in SOLVABLE (manufactured by Perkin Elmar), and the absorbance (405 nm) was measured and the amount of melanin was calculated relative to a standard determined by similarly dissolving melanin (manufactured by SIGMA) in SOLVABLE. The amount of melanin was determined relative to 100 (%) of the control (H2O addition).
(§2) The test method is similar to that of Example 6.

[3] = system: three-dimensional cultured skin model (MEL-300-A) composed of normal human epidermal melanocytes and epidermal keratinocytes; assay: Cell survival rate (Alamar Blue) in three-dimensional cultured skin model; type: cell-based
Description: as §1, §2

[4] = system: Normal human epidermal cells; assay: Test-2 of PGE2 production suppression (UVB irradiation); type: cell-based; settings: after 30 mJ/cm^2 UVB, culture supernatant after one day, control 670.1 ± 23.97
Description: Normal human epidermal cells were seeded on a 24 well plate by 2 × 10^5 each, and cultured for two days on a MCDB153 medium. The medium was replaced with HEPES Buffer, and was irradiated with 30 mJ/cm^2 UVB using a UVB lamp (TOREX FL20S and E-30/DMR 20W manufactured by TOSHIBA MEDICAL SUPPLY CO., LTD.). The intensity of ultraviolet rays was measured with a digital type ultraviolet intensity meter (manufactured by Ultraviolet). After the UVB irradiation, the medium was exchanged with a MCDB153 medium containing pentaerythritol (manufactured by JUNSEI CHEMICAL CO., LTD.), and further cultured for one day. As a control, purified water was added instead of pentaerythritol. After completion of the culture, the amount of PGE2 released in the culture supernatant was quantified using a PGE2 measurement kit (manufactured by Cayman Chemical Company). In addition, in the same manner as the control, a control group containing purified water and not irradiated with UVB was provided.

[5] = system: three-dimensional cultured skin model (MEL-300-A) composed of normal human epidermal melanocytes and epidermal keratinocytes; assay: Test of melanin production suppression, using three-dimensional cultured skin model; type: cell-based; settings: 25 µL on keratinous layer, 11 days culture, relative to 100 (%) of control (H2O)
Description: as §1, §2

Structure (SMILES) | PGE2 amount (pg/mL) ± SD ([1]; sample concentration 0.5 µM) | PGE2 amount (pg/mL) ± SD ([1]; sample concentration 5.0 µM) | activity at 5000 µM [2] | further results
CC1(C)OCC(CO)(CO)CO1 [monoisopropylidene pentaerythritol] | 824.7 ± 28.78 pg/mL | 790.5 ± 11.64 pg/mL |  | 
OC[C@@H](O)[C@@H](O)CO [Erythritol, reference compound] |  |  | 97% | 
OC[C@@H](O)[C@@H](O)[C@H](O)[C@H](O)CO [Mannitol, reference compound] |  |  | 96.3% | cell toxicity ([3]; 5 mmol/L, Example 7, method as Example 6): not detected
CC1(C)OCC2(CO1)COC(C)(C)OC2 [diisopropylidene pentaerythritol] | 746.0 ± 28.70 pg/mL | 1142.0 ± 19.94 pg/mL |  | 
OCC(CO)(CO)CO [Pentaerythritol] | 789.2 ± 168.61 pg/mL | 1151.3 ± 6.73 pg/mL |  | PGE2 amount (pg/mL) ± SD ([4]; sample concentration 0.05 µM): 565.5 ± 28.10 pg/mL; PGE2 amount (pg/mL) ± SD ([4]; sample concentration 0.5 µM): 522.8 ± 50.40 pg/mL; PGE2 amount (pg/mL) ± SD ([4]; sample concentration 5.0 µM): 512.3 ± 65.31 pg/mL; amount of melanin (%) ([5]; 1 mmol/L): 83.8%; amount of melanin (%) ([5]; 5 mmol/L): 76.7%; cell toxicity ([3]; 1 or 5 mmol/L, any test addition concentration, 11 days culture): not detected
